Consider seven compounds from US20240376124A1, “Macrocyclic Kinase Inhibitors” (Incyte Corporation, priority 2023, published 2024).

Experiment [1] has as its target T1, pseudo-kinase domain (JH2, amino-acids 536-812) of human V617F mutant JAK2 (Homo sapiens, UniProt O60674, F794H/V617F/W659A/W777A).
T1 construct: pseudo-kinase domain (JH2, amino-acids 536-812 with 3 surface mutations W659A, W777A, F794H); His (C); purchased BPS Bioscience 79498; host or cells: baculovirus expression system
Put plainly: JAK2 LanthaScreen JH2-V617F Binding Assay. As to conditions: 50 nM tracer, read-out: JH2BINDING—V617F IC50. The method, then:
Example C. JAK2 LanthaScreen JH2-V617F Binding Assay
(§1) JAK2 JH2-V617F binding assay utilizes pseudo-kinase domain (JH2, amino-acids 536-812 with 3 surface mutations W659A, W777A, F794H) of human V617F mutant JAK2 expressed as C-terminal His-Avi-tagged, biotinylated protein in a baculovirus expression system (BPS Bioscience, Catalog #79498). The assay was conducted in black 384-well polystyrene plates in a final reaction volume of 20 μL. JAK2 JH2-V617F (0.26 nM) was incubated with compounds (100 nL serially diluted in DMSO) in the presence of 50 nM Fluorescent JAK2-JH2 Tracer (MedChem Express Catalog #HY-102055) and 0.25 nM Streptavidin-Tb cryptate (Cisbio Part #610SATLB) in assay buffer (50 mM Tris, pH=7.5, 10 mM MgCl2, 0.01% Brij-35, 0.1% BSA, 1 mM EGTA, 5% Glycerol and 5 mM DTT). Non-specific binding was accessed in the presence of 2 mM ATP. After incubation for 1 hour at 25° C., LanthaScreen signals were read on a PHERAstar FS plate reader (BMG LABTECH). Data was analyzed with IDBS XLfit and GraphPad Prism 5.0 software using a four parameter dose response curve to determine IC50 for each compound.

Experiment [2] deals with T2, pseudo-kinase domain (JH2, amino-acids 536-812) of human Wild Type JAK2 (Homo sapiens, UniProt O60674, F794H/W659A/W777A).
T2 construct: pseudo-kinase domain (JH2, amino-acids 536-812 with 3 surface mutations W659A, W777A, F794H); His (C); purchased BPS Bioscience 79463; host or cells: baculovirus expression system
T2 sequence (O60674 536-812 W659A/W777A/F794H): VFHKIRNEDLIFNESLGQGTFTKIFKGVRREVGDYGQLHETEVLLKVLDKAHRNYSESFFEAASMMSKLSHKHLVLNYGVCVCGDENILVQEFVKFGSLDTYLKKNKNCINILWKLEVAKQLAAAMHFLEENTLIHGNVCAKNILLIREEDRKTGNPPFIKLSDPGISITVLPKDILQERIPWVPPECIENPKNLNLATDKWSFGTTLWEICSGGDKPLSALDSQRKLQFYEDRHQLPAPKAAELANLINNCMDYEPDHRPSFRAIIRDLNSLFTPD
Put plainly: JAK2 LanthaScreen JH2-WT Binding Assay. As to conditions: 50 nM tracer, read-out: JH2BIND_WT IC50. The method, then: Example B. JAK2 LanthaScreen JH2-WT Binding Assay
as §1, with “JH2-WT” for “JH2-V617F”, “Wild Type” for “V617F mutant”, “#79463).” for “#79498).”, “JH2-WT (0.145” for “JH2-V617F (0.26”

Experiment [3] has as its target T3, catalytic domain (JH1, amino acids 826-1132) of human JAK2 (Homo sapiens, UniProt O60674).
T3 construct: catalytic domain (JH1, amino acids 826-1132) of human JAK2; FLAG (N); purchased Carna Biosciences 08-445-20N; host or cells: baculovirus expression system
Put plainly: JAK2 LanthaScreen JH1 binding assay. The note with it: JAK2 JH1, 50 nM tracer; read-out: JH1BIND IC50. The procedure:
Example A. JAK2 LanthaScreen […] Binding Assay
JAK2 JH1 binding assay utilizes catalytic domain (JH1, amino acids 826-1132) of human JAK2 expressed as N-terminal FLAG-tagged, biotinylated protein in a baculovirus expression system (Carna Biosciences, Product #08-445-20N). The assay was conducted in black 384-well polystyrene plates in a final reaction volume of 20 μL. JAK2 JH1 (1.5 nM) was incubated with compounds (100 nL serially diluted in DMSO) in the presence of 50 nM fluorescent JAK2-JH1 tracer and 0.5 nM Streptavidin-Tb cryptate (Cisbio Part #610SATLB) in assay buffer (50 mM Tris, pH=7.5, 10 mM MgCl2, 0.01% Brij-35, 0.1% BSA, 1 mM EGTA, […] and 5 mM DTT). Non-specific binding was accessed in the presence of 2 mM ATP. After incubation for 2 hours at 25° C., LanthaScreen signals were read on a PHERAstar FS plate reader (BMG LABTECH).
Data was analyzed with IDBS XLfit and GraphPad Prism 5.0 software using a four parameter dose response curve to determine IC50 for each compound.

Experiment [4] addresses T4, catalytic domain (JH1, amino acids 808-1132) of human JAK2 (Homo sapiens, UniProt O60674).
T4 construct: catalytic domain (JH1, amino acids 808-1132) of human JAK2; His (N); purchased BPS Bioscience 40450; host or cells: baculovirus expression system
The experiment in a line: JAK2 HTRF Enzyme Activity Assay. The format is biochemical. The note with it: ATP 30 μM; read-out: ENZ 30UMATP IC50. The method, then: Example D. JAK2 HTRF Enzyme Activity Assay
JAK2 enzyme activity assays utilize catalytic domain (JH1, amino acids 808-1132) of human JAK2 expressed as N-terminal His-tagged protein in a baculovirus expression system (BPS Bioscience, Catalog #40450). The assays was conducted in black 384-well polystyrene plates in a final reaction volume of 20 μL. JAK2 (0.015 nM) was incubated with compounds (100 nL serially diluted in DMSO) in the presence of ATP (30 μM or 1 mM) and 500 nM Biotin-labeled EQEDEPEGDYFEWLE (SEQ ID NO.: 1) peptide (BioSource International, custom synthesis) in assay buffer (50 mM Tris, pH=7.5, 10 mM MgCl2, 0.01% Brij-35, 0.1% BSA, 1 mM EGTA, 5% Glycerol and 5 mM DTT) for 60 minutes at 25° C. The reactions were stopped by the addition of 10 μL of detection buffer (50 mM Tris, pH 7.8, 0.5 mg/mL BSA, 150 mM NaCl), supplemented with EDTA, LANCE Eu-W1024 anti-phosphotyrosine (PY20), (PerkinElmer, Catalog #AD0067) and Streptavidin SureLight APC (PerkinElmer Catalog #CR130-100), for a final concentration of 15 mM, 1.5 nM and 75 nM, respectively. HTRF signals were read after 30 minutes incubation at room temperature on a PHERAstar FS plate reader (BMG LABTECH). Data was analyzed with IDBS XLfit and GraphPad Prism 5.0 software using a four parameter dose response curve to determine IC50 for each compound. The compounds of the disclosure were tested in one or more of the assays described in Examples A-D, and the resulting data are shown in Table A.

Where “and” joins values, the source holds several entries; their conditions need not be identical. Equal values may be shown once.

T4 sequence (O60674 808-1132): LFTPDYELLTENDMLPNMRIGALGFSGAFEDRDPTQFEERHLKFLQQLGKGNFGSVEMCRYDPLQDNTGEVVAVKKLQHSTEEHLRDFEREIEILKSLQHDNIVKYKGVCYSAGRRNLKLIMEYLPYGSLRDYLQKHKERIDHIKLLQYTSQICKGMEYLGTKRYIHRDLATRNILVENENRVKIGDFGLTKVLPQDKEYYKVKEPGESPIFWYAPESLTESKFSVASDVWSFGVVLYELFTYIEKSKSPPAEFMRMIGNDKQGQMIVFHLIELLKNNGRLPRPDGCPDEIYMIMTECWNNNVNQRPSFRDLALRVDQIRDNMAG
T1 sequence (O60674 536-812 V617F/W659A/W777A/F794H): as the sequence (O60674 536-812 W659A/W777A/F794H) above, with V82F counted along it
T3 sequence (O60674 826-1132): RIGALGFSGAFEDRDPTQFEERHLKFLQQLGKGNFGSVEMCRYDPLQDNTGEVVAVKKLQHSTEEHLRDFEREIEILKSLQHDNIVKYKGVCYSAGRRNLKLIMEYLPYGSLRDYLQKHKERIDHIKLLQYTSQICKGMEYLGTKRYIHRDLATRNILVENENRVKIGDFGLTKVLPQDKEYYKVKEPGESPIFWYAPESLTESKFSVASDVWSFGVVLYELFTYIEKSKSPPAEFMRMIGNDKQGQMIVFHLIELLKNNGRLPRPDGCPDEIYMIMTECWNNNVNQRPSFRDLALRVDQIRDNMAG

For `[2H]C([2H])([2H])n1c(=O)n2c3c4c(c(-c5cn(CC6CC6)nc5F)[nH]c4ncc31)-c1ccc(cc1)OCC/C=C/C[C@]1(NC(=O)[C@H]3C[C@H]3F)CC[C@@H]2CC1` [Example 14, (1R,2R)-N-((3^1S,3^4s,E)-2^7-(1-(cyclopropylmethyl)-3-fluoro-1H-pyrazol-4-yl)-2^3-(methyl-d3)-2^2-oxo-2^1,2^2,2^3,2^6-tetrahydro-9-oxa-2(8,1)-imidazo[4,5-d]pyrrolo[2,3-b]pyridina-1(1,4)-benzena-3(1,4)-cyclohexanacyclononaphan-5-en-3^4-yl)-2-fluorocyclopropane-1-carboxamide], the IC50 in experiment [1] was at most 10 nM; in experiment [2], at most 10 nM; in experiment [3] it was 500 to 1000 nM and > 1000 nM; in experiment [4], 500 to 1000 nM and > 1000 nM.
Consider `[2H]C([2H])([2H])n1c(=O)n2c3c4c(c(-c5cn(C)nc5OC)[nH]c4ncc31)-c1ccc(cc1)OCCC/C=C/C[C@]1(NC(=O)C3CC3)CC[C@@H]2CC1` [Example 3, N-((3^1s,3^4s,E)-2^7-(3-Methoxy-1-methyl-1H-pyrazol-4-yl)-2^3-(methyl-d3)-2^2-oxo-2^1,2^2,2^3,2^6-tetrahydro-10-oxa-2(8,1)-imidazo[4,5-d]pyrrolo[2,3-b]pyridina-1(1,4)-benzena-3(1,4)-cyclohexanacyclodecaphan-5-en-3^4-yl)cyclopropanecarboxamide], for which the IC50 was at most 10 nM in experiment [1], at most 10 nM in experiment [2], above 1000 nM in experiment [3] and above 1000 nM in experiment [4].
For the compound `[2H]C([2H])([2H])n1c(=O)n2c3c4c(c(-c5cnn(CC(F)F)c5)[nH]c4ncc31)-c1ccc(cc1)OCC/C=C/C[C@]1(NC(=O)[C@H]3C[C@H]3F)CC[C@@H]2CC1` [Example 11, (1R,2R)-N-((3^1S,3^4s,E)-2^7-(1-(2,2-difluoroethyl)-1H-pyrazol-4-yl)-2^3-(methyl-d3)-2^2-oxo-2^1,2^2,2^3,2^6-tetrahydro-9-oxa-2(8,1)-imidazo[4,5-d]pyrrolo[2,3-b]pyridina-1(1,4)-benzena-3(1,4)-cyclohexanacyclononaphan-5-en-3^4-yl)-2-fluorocyclopropane-1-carboxamide], the half-maximal inhibitory concentration (IC50) in experiment [1] is at most 10 nM; in experiment [2], at most 10 nM; in experiment [3], 500 to 1000 nM; in experiment [4], above 1000 nM.
As to `[2H]C([2H])([2H])n1c(=O)n2c3c4c(c(-c5cn(CC)nc5F)[nH]c4ncc31)-c1ccc(cc1)OCC/C=C/C[C@]1(NC(=O)[C@H]3C[C@H]3F)CC[C@@H]2CC1` [Example 12, (1R,2R)-N-((3^1S,3^4s,E)-2^7-(1-ethyl-3-fluoro-1H-pyrazol-4-yl)-2^3-(methyl-d3)-2^2-oxo-2^1,2^2,2^3,2^6-tetrahydro-9-oxa-2(8,1)-imidazo[4,5-d]pyrrolo[2,3-b]pyridina-1(1,4)-benzena-3(1,4)-cyclohexanacyclononaphan-5-en-3^4-yl)-2-fluorocyclopropane-1-carboxamide], the IC50 in experiment [1] is at most 10 nM; in experiment [2], at most 10 nM; in experiment [3] it was 500 to 1000 nM and > 1000 nM; in experiment [4] it was 500 to 1000 nM and > 1000 nM.
As for `[2H]C([2H])([2H])n1c(=O)n2c3c4c(c(-c5cnn(C)c5)[nH]c4ncc31)-c1ccc(cc1)OCC/C=C/C[C@]1(NC(=O)[C@H]3C[C@H]3F)CC[C@@H]2CC1` [Example 10, (1R,2R)-2-fluoro-N-((3^1S,3^4s,E)-2^3-(methyl-d3)-2^7-(1-methyl-1H-pyrazol-4-yl)-2^2-oxo-2^1,2^2,2^3,2^6-tetrahydro-9-oxa-2(8,1)-imidazo[4,5-d]pyrrolo[2,3-b]pyridina-1(1,4)-benzena-3(1,4)-cyclohexanacyclononaphan-5-en-3^4-yl)cyclopropane-1-carboxamide], the IC50 in experiment [1] was at most 10 nM; in experiment [2], at most 10 nM; in experiment [3], 500 to 1000 nM; in experiment [4], 500 to 1000 nM.
As for `[2H]C([2H])([2H])n1c(=O)n2c3c4c(c(-c5cnn(CCOC)c5)[nH]c4ncc31)-c1ccc(cc1)OCC/C=C/C[C@]1(NC(=O)[C@H]3C[C@H]3F)CC[C@@H]2CC1` [Example 8, (1R,2R)-2-Fluoro-N-((3^1S,3^4s,E)-2^7-(1-(2-methoxyethyl)-1H-pyrazol-4-yl)-2^3-(methyl-d3)-2^2-oxo-2^1,2^2,2^3,2^6-tetrahydro-9-oxa-2(8,1)-imidazo[4,5-d]pyrrolo[2,3-b]pyridina-1(1,4)-benzena-3(1,4)-cyclohexanacyclononaphan-5-en-3^4-yl)cyclopropane-1-carboxamide], the IC50 in experiment [1] was at most 10 nM; in experiment [2] it was at most 10 nM; in experiment [3], 500 to 1000 nM; in experiment [4] it was 500 to 1000 nM.
For `[2H]C([2H])([2H])n1c(=O)n2c3c4c(c(-c5cn(C)nc5OC)[nH]c4ncc31)-c1ccc(cc1)CNCC[C@]1(NC(=O)C3CC3)CC[C@@H]2CC1` [Example 7, N-((3^1s,3^4s)-2^7-(3-Methoxy-1-methyl-1H-pyrazol-4-yl)-2^3-(methyl-d)-2^2-oxo-2^1,2^2,2^3,2^6-tetrahydro-6-aza-2(8,1)-imidazo[4,5-d]pyrrolo[2,3-b]pyridina-1(1,4)-benzena-3(1,4)-cyclohexanacycloheptaphane-3^4-yl)cyclopropanecarboxamide], the IC50 is 10 to 100 nM in experiment [1], at most 10 nM in experiment [2], above 1000 nM in experiment [3] and above 1000 nM in experiment [4].
